Measurements taken from article PMC8330742, “New benzothieno[2,3-c]pyridines as non-steroidal CYP17 inhibitors: design, synthesis, anticancer screening, apoptosis induction, and in silico ADME profile studies” (Journal of Enzyme Inhibition and Medicinal Chemistry, 2021).

How the values were obtained:
[1] = tested on: MDA-MB-435; test: NCI-60 SRB screen; assay type: cell-based;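 as to IC50: half-maximal inhibitory concentration read as cell viability unlike GI50 net growth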
[2] = tested on: HL-60(TB); test: NCI-60 SRB screen; assay type: cell-based, human;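 as to IC50: half-maximal inhibitory concentration read as cell viability unlike GI50 net growth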
[3] = tested on: RXF 393; test: NCI-60 SRB screen; assay type: cell-based, human; conditions: RXF 393;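 as to IC50: half-maximal inhibitory concentration read as cell viability unlike GI50 net growth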
[4] = tested on: NCI/ADR-RES; test: NCI-60 SRB screen; assay type: cell-based, human;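 as to IC50: half-maximal inhibitory concentration read as cell viability unlike GI50 net growth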
[5] = tested on: HCT-116; test: NCI-60 SRB screen; assay type: cell-based, human; conditions: HCT-116
[6] = tested on: HOP-62; test: NCI-60 SRB screen; assay type: cell-based, human; conditions: HOP-62
[7] = tested on: HOP-92; test: NCI-60 SRB screen; assay type: cell-based, human; conditions: HOP-92
[8] = tested on: OVCAR-3; test: NCI-60 SRB screen; assay type: cell-based, human; conditions: OVCAR-3
[9] = tested on: CAKI-1; test: NCI-60 SRB screen; assay type: cell-based, human; conditions: CAKI-1
[10] = tested on: CCRF-CEM; test: NCI-60 SRB screen; assay type: cell-based
[11] = tested on: UO-31; test: NCI-60 SRB screen; assay type: cell-based, human; conditions: UO-31
[12] = tested on: SK-MEL-2; test: NCI-60 SRB screen; assay type: cell-based, human; conditions: SK-MEL-2
[13] = tested on: SR; test: NCI-60 SRB screen; assay type: cell-based
[14] = tested on: COLO 205; test: NCI-60 SRB screen; assay type: cell-based, human; conditions: COLO 205
[15] = tested on: OVCAR-4; test: NCI-60 SRB screen; assay type: cell-based, human; conditions: OVCAR-4
[16] = tested on: NCI-H23; test: NCI-60 SRB screen; assay type: cell-based, human; conditions: NCI-H23
[17] = tested on: OVCAR-8; test: NCI-60 SRB screen; assay type: cell-based, human; conditions: OVCAR-8
[18] = tested on: A549/ATCC; test: NCI-60 SRB screen; assay type: cell-based, human
[19] = tested on: UACC-257; test: NCI-60 SRB screen; assay type: cell-based, human; conditions: UACC-257
[20] = tested on: K-562; test: NCI-60 SRB screen; assay type: cell-based, human; conditions: K-562
[21] = tested on: MALME-3M; test: NCI-60 SRB screen; assay type: cell-based, human
[22] = tested on: panel of 60 cancer cell lines; test: NCI-60 SRB screen, mean or range over the panel; assay type: cell-based, human; conditions: Homo sapiens
[23] = tested on: MOLT-4; test: NCI-60 SRB screen; assay type: cell-based; conditions: Homo sapiens, MOLT-4
[24] = Homo sapiens, single dose 10^−5 M, read-out: Growth inhibition (%)

Q: Which GI50 ([1]; Homo sapiens, MDA-MB-435) does the source give for N#CC1C(=O)NC(c2ccccc2[N+](=O)[O-])c2sc3c(F)cccc3c21 (stereo not drawn) [Compound 5c, 4-Cyano-8-fluoro-1-(2-nitrophenyl)-1,2-dihydro[1]benzothieno[2,3-c] pyridin-3(4H)-one] here?
A: 27.2 µM

Q: And the IC50 ([1]; Homo sapiens, MDA-MB-435)?
A: 38 µM

Q: What about the inhibition at 10 µM ([1]; Homo sapiens, MDA-MB-435, read-out: Growth inhibition (%)) of the same compound?
A: -1.7%

Q: And the LC50 (50% lethal concentration) ([1]; Homo sapiens, MDA-MB-435, five dose)?
A: > 100 µM

Q: What about the TGI ([1]; MDA-MB-435, five dose) of the same compound?
A: 100 µM

Q: And the TGI ([2]; HL-60(TB), five dose)?
A: 100 µM

Q: And the GI50 ([2]; Homo sapiens, HL-60)?
A: 14.2 µM

Q: What about the IC50 ([2]; Homo sapiens, HL-60) of the same compound?
A: 28.2 µM

Q: What about the inhibition at 10 µM ([2]; Homo sapiens, HL-60, read-out: Growth inhibition (%)) of the same compound?
A: 18.8%

Q: And the GI50 ([3]; Homo sapiens, five dose)?
A: 11.3 µM

Q: And the IC50 ([3]; Homo sapiens, five dose)?
A: 37.2 µM

Q: And the inhibition at 10 µM [3, 24]?
A: 30.1%

Q: And the TGI ([3]; five dose)?
A: 100 µM

Q: And the GI50 ([4]; Homo sapiens, five dose)?
A: 8.21 µM

Q: What about the IC50 ([4]; Homo sapiens, five dose) of the same compound?
A: 16.6 µM

Q: And the inhibition at 10 µM [4, 24]?
A: 31.5%

Q: And the TGI ([4]; five dose)?
A: 100 µM

Q: And the TGI ([5]; five dose)?
A: 44.50 µM

Q: And the GI50 ([5]; Homo sapiens, five dose)?
A: 0.14 µM

Q: And the IC50 ([5]; Homo sapiens, five dose)?
A: 0.195 µM

Q: And the inhibition at 10 µM [5, 24]?
A: 89%

Q: What about the TGI ([6]; five dose) of the same compound?
A: 100 µM

Q: What about the GI50 ([6]; Homo sapiens, five dose) of the same compound?
A: 10 µM

Q: What about the IC50 ([6]; Homo sapiens, five dose) of the same compound?
A: 22.9 µM

Q: What about the inhibition at 10 µM [6, 24] of the same compound?
A: 66.3%

Q: What about the TGI ([7]; five dose) of the same compound?
A: 100 µM

Q: What about the GI50 ([7]; Homo sapiens, five dose) of the same compound?
A: 12.6 µM

Q: And the IC50 ([7]; Homo sapiens, five dose)?
A: 79.4 µM

Q: And the inhibition at 10 µM [7, 24]?
A: 115%

Q: And the GI50 ([8]; Homo sapiens, five dose)?
A: 0.32 µM

Q: What about the IC50 ([8]; Homo sapiens, five dose) of the same compound?
A: 0.676 µM

Q: And the inhibition at 10 µM [8, 24]?
A: 114%

Q: What about the TGI ([8]; five dose) of the same compound?
A: 87.80 µM

Q: What about the TGI ([9]; five dose) of the same compound?
A: 100 µM

Q: And the GI50 ([9]; Homo sapiens, five dose)?
A: 0.17 µM

Q: And the IC50 ([9]; Homo sapiens, five dose)?
A: 0.562 µM

Q: What about the inhibition at 10 µM [9, 24] of the same compound?
A: 94.7%

Q: And the GI50 ([10]; Homo sapiens, five dose)?
A: 26.3 µM

Q: What about the IC50 ([10]; Homo sapiens, five dose) of the same compound?
A: 37.2 µM

Q: What about the LC50 ([10]; Homo sapiens, five dose) of the same compound?
A: > 100 µM

Q: What about the inhibition at 10 µM [10, 24] of the same compound?
A: 13.2%

Q: And the TGI ([10]; five dose)?
A: 100 µM

Q: What about the GI50 ([11]; Homo sapiens, five dose) of the same compound?
A: 10.7 µM

Q: And the IC50 ([11]; Homo sapiens, five dose)?
A: 19.5 µM

Q: What about the inhibition at 10 µM [11, 24] of the same compound?
A: 46.2%

Q: What about the TGI ([11]; five dose) of the same compound?
A: 55.20 µM

Q: And the GI50 ([12]; Homo sapiens, five dose)?
A: 12.7 µM

Q: What about the IC50 ([12]; Homo sapiens, five dose) of the same compound?
A: 33.9 µM

Q: What about the inhibition at 10 µM [12, 24] of the same compound?
A: 7.4%

Q: And the TGI ([12]; five dose)?
A: 100 µM

Q: And the GI50 ([13]; Homo sapiens, five dose)?
A: 14.1 µM

Q: And the IC50 ([13]; Homo sapiens, five dose)?
A: 25.1 µM

Q: What about the LC50 ([13]; Homo sapiens, five dose) of the same compound?
A: > 100 µM

Q: What about the inhibition at 10 µM [13, 24] of the same compound?
A: 33.2%

Q: What about the TGI ([13]; five dose) of the same compound?
A: 100 µM

Q: What about the TGI ([14]; five dose) of the same compound?
A: 100 µM

Q: And the GI50 ([14]; Homo sapiens, five dose)?
A: 10.3 µM

Q: And the IC50 ([14]; Homo sapiens, five dose)?
A: 17.8 µM

Q: And the inhibition at 10 µM [14, 24]?
A: 29.9%

Q: And the GI50 ([15]; Homo sapiens, five dose)?
A: 1.61 µM

Q: What about the IC50 ([15]; Homo sapiens, five dose) of the same compound?
A: 24.5 µM

Q: What about the inhibition at 10 µM [15, 24] of the same compound?
A: 100%

Q: And the TGI ([15]; five dose)?
A: 100 µM

Q: And the GI50 ([16]; Homo sapiens, five dose)?
A: 7.33 µM

Q: What about the IC50 ([16]; Homo sapiens, five dose) of the same compound?
A: 19.5 µM

Q: What about the inhibition at 10 µM [16, 24] of the same compound?
A: 32.9%

Q: What about the TGI ([16]; five dose) of the same compound?
A: 100 µM

Q: And the GI50 ([17]; Homo sapiens, five dose)?
A: 12 µM

Q: What about the IC50 ([17]; Homo sapiens, five dose) of the same compound?
A: 20.4 µM

Q: What about the inhibition at 10 µM [17, 24] of the same compound?
A: 25.1%

Q: What about the TGI ([17]; five dose) of the same compound?
A: 100 µM

Q: And the GI50 ([18]; Homo sapiens, five dose)?
A: 1.31 µM

Q: What about the IC50 ([18]; Homo sapiens, five dose) of the same compound?
A: 2.34 µM

Q: And the inhibition at 10 µM [18, 24]?
A: 52.8%

Q: What about the TGI ([18]; five dose) of the same compound?
A: 100 µM

Q: And the inhibition at 10 µM ([19]; Homo sapiens, UACC-275 (so in the source), single dose 10^−5 M, read-out: Growth inhibition (%))?
A: 137%

Q: And the GI50 ([19]; Homo sapiens, five dose)?
A: 1.73 µM

Q: And the IC50 ([19]; Homo sapiens, five dose)?
A: 5.89 µM

Q: And the TGI ([19]; five dose)?
A: 100 µM

Q: What about the GI50 ([20]; Homo sapiens, K562, five dose) of the same compound?
A: 1.98 µM

Q: And the IC50 ([20]; Homo sapiens, K562, five dose)?
A: 3.16 µM

Q: And the inhibition at 10 µM ([20]; Homo sapiens, K562, single dose 10^−5 M, read-out: Growth inhibition (%))?
A: 64.1%

Q: And the TGI ([20]; five dose)?
A: 100 µM

Q: And the GI50 ([21]; Homo sapiens, five dose)?
A: 22.6 µM

Q: And the IC50 ([21]; Homo sapiens, five dose)?
A: 83.2 µM

Q: What about the inhibition at 10 µM [21, 24] of the same compound?
A: 25.3%

Q: What about the TGI ([21]; five dose) of the same compound?
A: 100 µM

Q: What about the GI50 ([22]; mean graph midpoint over all tested cell lines, five dose, read-out: MG-MID GI50) of the same compound?
A: 0.21 µM

Q: What about the inhibition at 10 µM ([22]; mean over the cell lines, single dose 10^−5 M, read-out: Mean growth inhibition (%)) of the same compound?
A: 46.9%

Q: And the GI50 ([23]; five dose)?
A: 19.1 µM

Q: And the IC50 ([23]; five dose)?
A: 30.9 µM

Q: And the LC50 (50% lethal concentration) ([23]; five dose)?
A: > 100 µM

Q: And the inhibition at 10 µM ([23]; single dose 10^−5 M, read-out: Growth inhibition (%))?
A: 13.5%
